Measurements: PubChem BioAssay AID493142 (Sanford-Burnham Center for Chemical Genomics, 2011)
pIC50: −log10 of the molar value. Where “and” joins values, the source holds several entries; their conditions need not be identical. Equal entries are not always repeated. Calls of active or inactive are those of the source.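 How the source made its calls: active means mean IC50 below 100 µM; inactive means the rest.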

Target: Intestinal alkaline phosphatase (Alpi) [Mus musculus]
Experiment: inhibitors of murine Alpi enzyme – biochemical, ortholog specificity, luminescence, selectivity assay for human IAP inhibitor project, SAR follow-up (AID 493142)
Details: Purified mouse IAP, CDP-Star luminescence, 30 min

SMILES | IC50 | pIC50
COC(=O)/C=C1/S/C(=N/N=Cc2ccc(N(C)C)cc2)NC1=O | > 100 µM (inactive) | –
CCOc1cc(/C=N/N=C2\NC(=O)C(CC(=O)O)S2)ccc1O (stereo unspecified) | > 100 µM (inactive) | –
Cc1cc(=O)oc2cc(NC(=S)NCCC(c3ccccc3)c3ccccc3)ccc12 | > 100 µM (inactive) | –
COC(=O)C/C=N/N=C1\NC(=O)/C(=C/C(=O)O)S1 | > 100 µM (inactive) | –
Cn1c(=S)n(N=Cc2ccc3c(c2)OCO3)c2ccccc21 | > 100 µM (inactive) | –
COc1cc(C=NN=C2SC(CC(=O)O)C(=O)N2c2ccc(O)cc2)ccc1O (stereo unspecified) | > 100 µM (inactive) | –
COc1cc([N+](=O)[O-])ccc1NC(=S)NCCC(c1ccccc1)c1ccccc1 | > 100 µM (inactive) | –
N#CCCn1cc(/C=N/N=C2/NC(=O)C(CC(=O)O)S2)c(-c2ccc(F)cc2)n1 (stereo unspecified) | > 100 µM (inactive) | –
COc1cc(C=NNC(=S)Nc2cccc(S(=O)(=O)N(C)C)c2)cc(OC)c1O | > 100 µM (inactive) | –
COc1ccc(/C=N/N=C2/NC(=O)C(CC(=O)O)S2)cc1OC (stereo unspecified) | > 100 µM (inactive) | –
COc1cc(/C=N/N=C2\NC(=O)C(CC(=O)O)S2)cc(OC)c1OC (stereo unspecified) | > 100 µM (inactive) | –
COc1cc(C(=O)NNC(=S)Nc2ccc(S(N)(=O)=O)cc2)cc(OC)c1OC | > 100 µM (inactive) | –
COc1ccc(/C=N/N=C2\NC(=O)C(CC(=O)O)S2)c(OC)c1 (stereo unspecified) | > 100 µM (inactive) | –
S=C(NCCC(c1ccccc1)c1ccccc1)Nc1ccc(Cl)cc1Cl | > 100 µM (inactive) | –
O=S(=O)(c1ccc(NC(=S)N/N=C/c2ccc(O)c(O)c2)cc1)N1CCOCC1 | – | 5.99
Cc1ccc(-c2ccc(/C=N/N=C3\NC(=O)C(CC(=O)O)S3)o2)c([N+](=O)[O-])c1 (stereo unspecified) | > 100 µM (inactive) | –
O=S(=O)(Nc1ncccn1)c1ccc(NC(=S)NCCC(c2ccccc2)c2ccccc2)cc1 | > 100 µM (inactive) | –
COC(=O)/C=C1\S/C(=N/N=C/c2ccc(Cl)cc2)NC1=O | > 100 µM (inactive) | –
FC(F)(F)c1cccc(NC(=S)NCCC(c2ccccc2)c2ccccc2)c1 | > 100 µM (inactive) | –
COC(=O)/C=C1/S/C(=N/NC(=O)c2ccccc2C)NC1=O | > 100 µM (inactive) | –
COc1ccc(C=NNC(=S)Nc2ccccc2[N+](=O)[O-])cc1O | > 100 µM (inactive) | –
COc1cc([N+](=O)[O-])ccc1NC(=S)NNC(=O)c1ccc2c(c1)OCO2 | – | 4.02

SMILES | IC50 | pIC50
O=[N+]([O-])c1ccc(NC(=S)NCCC(c2ccccc2)c2ccccc2)cc1 | > 100 µM (inactive) | –
COc1ccc(NC(=S)NCCC(c2ccccc2)c2ccccc2)cc1 | > 100 µM (inactive) | –
CC(C)(C)c1ccc(/C=N/N=C2\NC(=O)C(CC(=O)O)S2)cc1 (stereo unspecified) | > 100 µM (inactive) | –
COC(=O)/C=C1/S/C(=N/NC(=O)c2ccc(OC)cc2)NC1=O | > 100 µM (inactive) | –
COC(=O)/C=C1\S/C(=N/N=C/CC(=O)OC)NC1=O | > 100 µM (inactive) | –
COc1ccc(C=NN=C2SC(CC(=O)O)C(=O)N2c2ccc(O)cc2)cc1 (stereo unspecified) | > 100 µM (inactive) | –
COc1cc(/C=N/N=C2/SCC(=O)N2c2ccc(O)cc2)ccc1O | > 100 µM (inactive) | –
COC(=O)/C=C1\SC(N=Nc2c(O)[nH]c3ccccc23)=NC1=O | > 100 µM (inactive) | –
CC(=NNC(=S)Nc1ccccc1)c1ccc2c(c1)OCO2 | > 100 µM (inactive) | –
O=C(O)CC1S/C(=N/N=C/c2ccco2)NC1=O (stereo unspecified) | > 100 µM (inactive) | –
Cc1cccc(C)c1NC(=S)N/N=C/c1ccc(O)c(O)c1O | – | 4.23
COC(=O)/C=C1/S/C(=N/NC(=O)c2ccccc2)NC1=O | > 100 µM (inactive) | –
CCOc1cc(C=NNC(=S)NC2CCCCC2)ccc1O | > 100 µM (inactive) | –
O=[N+]([O-])c1ccccc1NC(=S)N/N=C/c1ccc(O)c(O)c1O | – | 4.65
COC(=O)/C=C1/S/C(=N/NC(=O)c2ccccc2OC)NC1=O | > 100 µM (inactive) | –
Cc1ccc2sc(NNC(=O)c3ccc4c(c3)OCCO4)nc2c1C | > 100 µM (inactive) | –
CCN(CC)S(=O)(=O)c1ccc(-c2csc(=Nc3cccc4ccccc34)n2C)cc1 | > 100 µM (inactive) | –
COc1ccc(C(=O)NNC(=S)NC2CCCCC2)cc1OC | – | 4.06
COc1ccc(C=Nn2c(=S)n(C)c3ccccc32)cc1OC | > 100 µM (inactive) | –
O=S(=O)(c1ccc(NC(=S)N/N=C/c2ccc(O)c(O)c2O)cc1)N1CCOCC1 | – | 4.09
CCOc1cc(C=N/N=C2/NC(=O)C(CC(=O)O)S2)ccc1OCc1ccccc1Cl (stereo unspecified) | > 100 µM (inactive) | –
COC(=O)/C=C1/S/C(=N/NC(=O)c2ccc(Cl)cc2Cl)NC1=O | > 100 µM (inactive) | –

Further lines, results first:

IC50 | pIC50 | SMILES
> 100 µM (inactive) | – | COc1ccc(-c2csc(Nc3cccc4ccccc34)n2)cc1
– | 5.85 | Oc1ccc(Nc2nc(-c3ccc(O)c(O)c3)cs2)cc1
– | 4.24 | Cc1ccc2nc(NNC(=O)c3ccc4c(c3)OCCO4)sc2c1
– | 5.68 | NS(=O)(=O)c1ccc(Nc2nc(-c3ccc(O)c(O)c3)cs2)cc1
– | 5.18 | O=[N+]([O-])c1ccccc1NC(=S)NN=Cc1ccc(O)c(O)c1
– | 4.12 | Cc1cccc2sc(NNC(=O)c3ccc4c(c3)OCCO4)nc12
– | 5.26 and 5.38 | CCc1ccccc1Nc1nc(-c2ccc(O)c(O)c2)cs1
> 100 µM (inactive) | – | COc1ccc(-c2csc(Nc3cccc4ccccc34)n2)cc1F
> 100 µM (inactive) | – | Cc1ccc(C)c(Nc2nc(-c3ccc(O)cc3O)cs2)c1
– | 5.18 | Cc1ccc(Nc2nc(-c3ccc(O)c(O)c3)cs2)cc1
> 100 µM (inactive) | – | COc1cccc(Nc2nc(-c3ccc(O)cc3)cs2)c1
– | 5.25 | Oc1ccc(-c2csc(Nc3ccc(F)cc3)n2)cc1O
> 100 µM (inactive) | – | Cc1ccc(Nc2nc(-c3ccc(O)cc3O)cs2)cc1F
– | 5.02 | Cc1ccc(Nc2nc(-c3ccc(O)c(O)c3)cs2)cc1F
> 100 µM (inactive) | – | Cc1ccc(Nc2nc(-c3ccc(O)c(C(N)=O)c3)cs2)cc1
> 100 µM (inactive) | – | Cc1ccc(Nc2nc(-c3ccc(O)cc3O)cs2)cc1C

IC50 | pIC50 | SMILES
– | 5.41 | Cc1ccc(Cl)cc1Nc1nc(-c2ccc(O)c(O)c2)cs1
– | 4.56 | CN(C)S(=O)(=O)c1cccc(NC(=S)NN=Cc2ccc(O)c(O)c2O)c1
> 100 µM (inactive) | – | COc1cc(C=NNC(=S)Nc2cccc(C(=O)O)c2)ccc1O
> 100 µM (inactive) | – | COc1cc(C=NNC(=S)Nc2cccc(S(=O)(=O)N(C)C)c2)ccc1O
> 100 µM (inactive) | – | Oc1ccc(-c2csc(Nc3ccccc3)n2)c(O)c1
> 100 µM (inactive) | – | Cc1cccc(Nc2nc(-c3ccc(O)c(C(N)=O)c3)cs2)c1
– | 5.35 and 4.92 | Cc1c(Cl)cccc1Nc1nc(-c2ccc(O)c(O)c2)cs1
– | 5.11 | Cc1cccc(Nc2nc(-c3ccc(O)c(O)c3)cs2)c1
– | 4.23 | Cc1cccc(NC(=S)NNC(=O)c2ccc3c(c2)OCO3)c1
– | 5.16 | CCOc1ccc(Nc2nc(-c3ccc(O)c(O)c3)cs2)cc1
> 100 µM (inactive) | – | Cc1cccc(NC(=S)NN=Cc2ccc3c(c2)OCO3)c1
> 100 µM (inactive) | – | Cc1cc(C)cc(Nc2nc(-c3ccc(O)cc3O)cs2)c1
> 100 µM (inactive) | – | Cc1ccc(Nc2nc(-c3ccc(O)cc3O)cs2)cc1
– | 5.57 and 5.28 | Oc1ccc(-c2csc(Nc3cccc4ccccc34)n2)cc1O
– | 5.28 and 5.33 | COc1ccc(Cl)cc1Nc1nc(-c2ccc(O)c(O)c2)cs1
– | 4.31 | NS(=O)(=O)c1ccc(Nc2nc(-c3ccc(O)cc3O)cs2)cc1
